“Also recorded” adds a separate entry of the source. Read-outs that look alike come from different tables or passages of the source.
How the values were obtained:
[1] = system: Scopolamine induced memory deficit; assay: Morris water maze (MWM) test, scopolamine induced learning deficit; assay type: in vivo, mice
Description: (§1) All animal experiments and procedures were executed in accordance with the guidelines established in the guide for the care and use of laboratory animals and were approved by the institutional animal ethics committee (IAEC) of CSIR-Central Drug Research Institute, Lucknow, India. In this study, male C57BL/6J mice (6-8 weeks old) weighing 22-25 g were used. They were housed on a 12-h light/dark cycle (lights on at 8.00 am) and food and water were provided ad libitum. Animals were acclimatized to the experimental room 30 minutes prior to the beginning of behavioral procedures. For experimental purpose, animals were randomly divided into four groups: vehicle, RG-02, scopolamine and scopolamine along with RG-02. In scopolamine along with RG-02 group, RG-02 (10 mg/kg, i.p) was injected thirty minutes prior to the scopolamine (0.5 mg/kg, i.p.) injections.
The Morris water maze (MWM) test was performed according to Morris 1984, with slight modifications. Circular pool of dimensions-100 cm diameter and 45 cm depth, which was filled up to 25 cm from bottom with white colour water. Temperature of water was adjusted to 24-25° C. Pool was divided into four quadrants and a square platform of 10×10 cm in was placed into the tank at a fixed location in the centre of one of the four imaginary quadrants. Training sessions were conducted for 3 consecutive days and on 4th day a probe trial was performed. During training session, mouse was gently placed into the water facing the edge of the pool of one of the quadrant. If the mouse was able to find the platform before the 60 sec cut-off, it was allowed to stay over the platform for 5 more seconds followed by returning to its home cage. […] Total three trials/day were run for each mouse with minimum interval of 10-15 minutes between two trials, and latency to reach the platform was calculated. On the fourth day, for the probe trial, the platform was removed and the time spent in respective quadrant was calculated.

[2] = molecular target: T1, human M2R (Homo sapiens, UniProt P08172); assay: GloSensor cAMP assay (Gi-mediated cAMP inhibition); assay type: cell-based; settings: for IC50: agonist
T1 construct: expressed in transfected cells; host or cells: HEK-293T
T1 sequence (P08172 1-466): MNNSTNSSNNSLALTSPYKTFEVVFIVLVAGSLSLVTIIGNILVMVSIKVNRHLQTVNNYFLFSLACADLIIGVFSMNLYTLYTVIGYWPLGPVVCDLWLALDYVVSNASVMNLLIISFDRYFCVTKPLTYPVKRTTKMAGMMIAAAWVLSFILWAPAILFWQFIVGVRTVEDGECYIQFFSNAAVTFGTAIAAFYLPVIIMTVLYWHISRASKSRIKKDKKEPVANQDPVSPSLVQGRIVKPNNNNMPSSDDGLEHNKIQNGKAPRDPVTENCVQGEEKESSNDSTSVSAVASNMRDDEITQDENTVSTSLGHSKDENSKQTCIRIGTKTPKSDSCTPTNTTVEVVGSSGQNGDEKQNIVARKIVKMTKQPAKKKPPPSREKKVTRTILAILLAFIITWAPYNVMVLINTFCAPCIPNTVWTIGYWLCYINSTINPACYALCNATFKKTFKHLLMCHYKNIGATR
Procedure: To measure M2 muscarinic receptor induced (Gi-mediated) cAMP inhibition, HEK-293T cells (procured from NCCS, Pune) were co-transfected with human M2R and luciferase based cAMP biosensor (pGloSensor™-22F plasmid; Promega) using PEImax method of transfection in the ratio of 1:1. The transfected cells were incubated at 37° C. in tissue culture incubator with 5% CO2 for 14-16 hours. For GloSensor cAMP assay, after overnight incubation, media from the plate was aspirated and 100 μl of sodium luciferin solution in drug buffer (1×HBSS (pH7.4) and 20 mM HEPES) was added to the cell plates. The plates were then incubated at 37° C. in tissue culture incubator with 5% CO2 for 90 minutes. After incubation, cells were treated with 20 μl of 6× diluted standard carbamoyl choline (10000 nM to 0.01 nM) along with test compounds (in triplicates) and were incubated in a humidified tissue culture incubator at 37° C. with 5% CO2 for 10-15 minutes to get a steady state condition. Ligand incubation was followed by addition of 20 μl of 7×(70 μM) forskoline (FSK) to the plate. FSK incubation was followed by incubation at 37° C. for 10-15 minutes and measurement of luminescence per well using luminescence plate reader (BMG Labtech). The results were plotted as inhibition of FSK stimulated cAMP response (relative luminescence units) using nonlinear regression analysis by Graph-Pad prism V.

[3] = system: C57BL/6 mice; assay: Locomotor activity in open field arena; assay type: in vivo; settings: 10 mg/kg i.p., acute, 60 minutes following injection, vs vehicle, p<0.05
Description: as §1
Locomotor activity was tested according to the previously published protocol (Kelly et al, 1998) with slight modifications. Briefly, mice were put in the centre of a clear Plexiglas (40×40×30 cm) open-field arena and were allowed to explore the entire arena for 30 minutes. After 30 minutes of exploration, animals were injected with either RG-02 (10 mg/kg; i.p.) or 0.9% normal saline and were allowed to explore the arena for further 60 minutes. […]

[4] = system: Scopolamine induced memory deficit; assay: Novel object recognition (NOR) test, scopolamine induced memory deficit; assay type: in vivo, mice; settings: RG-02 10 mg/kg i.p. + scopolamine 0.5 mg/kg i.p., 7th day
Description: as §1
The NOR test was performed according to the protocol introduced by Ennaceur and Delacour (Ennaceur & Delacour, 1988) with slight modification.
The NOR task procedure consisted of three sessions—[…], familiarization and test session. During habituation session, the mouse was placed in an open field (Square box of 40×40×40 cm), facing the wall of the arena, and allowed to explore the entire arena for 10 minutes. Following habituation period of 10 minutes, the mouse was returned to its home cage.
Between every […] session, the whole arena was cleaned with 10% ethanol to reduce olfactory cues. […] During this session, the test animal was placed in the arena and was allowed to explore the entire arena with familiar and novel object, and its activity was also video recorded. To determine the retention of object memory, the recorded videos of test session were analyzed by independent observer who was unknown to treatment of mice to calculate the time spent in exploring both objects. Data are presented as % time of exploration of familiar or novel object, and discrimination index was calculated as per following equation: (Tn−Tf)/Tt: Discrimination Index […]

## O=C1CCC[C@@H]2[C@@H]1C[C@@]1(S(=O)(=O)c3ccccc3)C(=O)[C@@H]3c4ccccc4[C@H]1N32 [RG-02, (4aS,6S,6aR,11S,12aR)-6-(phenylsulfonyl)-1,2,3,4a,5,6,6a,12a-octahydro-6,11-methanoisoindolo[2,1-a]quinoline-4,13(11H)-dione]
[1]; RG-02 10 mg/kg i.p. + scopolamine 0.5 mg/kg i.p., day 4, vs scopolamine alone
  time spent in platform quadrant (probe trial): increased the time spent in the quadrant with platform; also recorded: significantly increased
[1]; RG-02 alone 10 mg/kg i.p., vs vehicle
  learning the location of hidden platform: no per se effect
[2]
  agonist activity at M2 receptor (in words): most potent agonist at M2 receptor; also recorded: selective M2 muscarinic receptor agonist with high activity
[2]; M2, N.A. = not active, read-out: pIC50/pEC50 (Mean ± SEM) M2 (converted)
  IC50: 4.17 nM
[2]; read-out: IC50 at M2 receptor
  IC50: 4 nM
[3]
  locomotor activity (total horizontal distance travelled): significantly increased locomotor activity; also recorded: neurostimulatory effect; also recorded: significant increase in locomotor activity
[4]; vs scopolamine alone / vehicle
  percent time exploration for novel object: significantly increased
[4]; vs scopolamine alone, p<0.05
  novel object discrimination index: significantly blocked the negative effect of scopolamine on novel object discrimination; also recorded: significantly increased

From patent US11065235B2, “Substituted methanopyrido [2, 1-a] isoindolones as mAChR modulators for treating various associated pathophysiological conditions and process for preparation thereof” (COUNCIL OF SCIENTIFIC & INDUSTRIAL RESEARCH, priority 2017, dated 2021)
